Assay results published in publication PMC3845904 (Chemical research in toxicology, 2009).
Where two headings read alike, the source gives them in different places.

How the values were obtained:
[1] = target: T1, human P450 1B1 (Homo sapiens, UniProt Q16678); test: Inhibition of 7-ethoxyresorufin O-deethylation; conditions: results not presented
T1 sequence (Q16678 1-543): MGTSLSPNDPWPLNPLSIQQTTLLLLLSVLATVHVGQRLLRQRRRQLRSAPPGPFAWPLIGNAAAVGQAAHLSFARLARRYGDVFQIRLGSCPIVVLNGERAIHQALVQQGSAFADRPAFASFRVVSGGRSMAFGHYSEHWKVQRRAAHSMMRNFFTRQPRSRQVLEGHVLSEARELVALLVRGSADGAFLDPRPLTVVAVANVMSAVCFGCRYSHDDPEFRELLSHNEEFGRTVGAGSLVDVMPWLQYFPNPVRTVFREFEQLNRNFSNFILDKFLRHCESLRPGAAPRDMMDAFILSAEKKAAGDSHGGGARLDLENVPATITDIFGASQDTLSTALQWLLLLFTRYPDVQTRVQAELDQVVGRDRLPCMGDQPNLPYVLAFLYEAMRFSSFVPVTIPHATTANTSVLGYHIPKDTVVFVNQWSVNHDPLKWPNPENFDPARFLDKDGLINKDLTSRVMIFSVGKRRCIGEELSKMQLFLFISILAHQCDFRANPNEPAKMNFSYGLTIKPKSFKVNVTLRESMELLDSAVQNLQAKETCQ

[2] = target: T1, human P450 1B1; test: biochemical
[3] = target: T1, human P450 1B1; test: Spectral binding titration; conditions: purified P450 1B1 1.0 μM, ND = not detected at 100 μM
[4] = target: T1, human P450 1B1
[5] = target: T1, human P450 1B1; conditions: pH 7.4

| manner of inhibition of P450 1B1 EROD activity [1] | IC50 [2] | Reverse Type I spectra ΔAmax/Ks (magnitude of spectral binding) [3] | Reverse Type I spectra ΔAmax ([3]; means ± SEs) | IC50 [4] | Kd [5] | SMILES |
| --- | --- | --- | --- | --- | --- | --- |
| mechanism-based manner | 1800 ± 200 nM | 0.0062 | 0.074 ± 0.008 |  |  | CC#Cc1ccc(-c2ccccc2)cc1 [4PB, 4-(1-propynyl)biphenyl] |
|  |  |  |  | 1500 ± 300 nM | 54000 ± 6200 nM | CCC#Cc1ccc(-c2ccccc2)cc1 [4BuB, 4-butinylbiphenyl] |
